Earlier results as cited in patent publication US20260373135A1, “Methods of Treatment with Tradipitant” (Vanda Pharmaceuticals Inc., priority 2022, published 2026).

Key:
CYP3A4 [1] = target: T1, CYP3A4 (Homo sapiens, UniProt P08684); conditions: renal transplant patients; cited from earlier work
CYP3A4 [2] = target: T1, CYP3A4; conditions: breast cancer patients; n=16 *22, n=116 wt; cited from earlier work
CYP3A4 [3] = target: T1, CYP3A4; conditions: human liver microsomes in vitro; cited from earlier work

T1 sequence (P08684 whole entry): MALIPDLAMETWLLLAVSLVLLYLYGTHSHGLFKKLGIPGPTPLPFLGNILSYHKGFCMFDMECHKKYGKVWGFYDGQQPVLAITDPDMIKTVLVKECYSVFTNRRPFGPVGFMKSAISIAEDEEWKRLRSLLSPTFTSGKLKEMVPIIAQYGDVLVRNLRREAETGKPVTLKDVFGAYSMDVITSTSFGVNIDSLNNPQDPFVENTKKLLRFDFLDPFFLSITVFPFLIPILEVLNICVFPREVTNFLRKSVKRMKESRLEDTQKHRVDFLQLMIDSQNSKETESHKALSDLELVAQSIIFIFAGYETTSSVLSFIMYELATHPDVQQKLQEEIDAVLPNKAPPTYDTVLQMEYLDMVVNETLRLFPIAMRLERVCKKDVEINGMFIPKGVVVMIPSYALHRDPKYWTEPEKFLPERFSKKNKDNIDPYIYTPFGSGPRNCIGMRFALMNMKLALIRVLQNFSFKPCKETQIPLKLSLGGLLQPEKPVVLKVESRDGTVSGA

SMILES | clearance in CYP3A4*22 carriers (CYP3A4 [1]) | other results
CO[C@H]1C[C@@H]2CC[C@@H](C)[C@@](O)(O2)C(=O)C(=O)N2CCCC[C@H]2C(=O)O[C@H]([C@H](C)C[C@@H]2CC[C@@H](OCCO)[C@H](OC)C2)CC(=O)[C@H](C)/C=C(\C)[C@@H](O)[C@@H](OC)C(=O)[C@H](C)C[C@H](C)/C=C/C=C/C=C/1C [everolimus] | lower clearance | –
C=CC[C@@H]1/C=C(\C)C[C@H](C)C[C@H](OC)[C@H]2O[C@@](O)(C(=O)C(=O)N3CCCC[C@H]3C(=O)O[C@H](/C(C)=C/[C@@H]3CC[C@@H](O)[C@H](OC)C3)[C@H](C)[C@@H](O)CC1=O)[C@H](C)C[C@@H]2OC [tacrolimus] | reduced | –
CC/C(=C(\c1ccc(O)cc1)c1ccc(OCCNC)cc1)c1ccccc1 [Endoxifen] | – | blood concentrations in CYP3A4*22 carriers vs *1/*1 (CYP3A4 [2]): increased
CO[C@H]1C[C@@H]2CC[C@@H](C)[C@@](O)(O2)C(=O)C(=O)N2CCCC[C@H]2C(=O)O[C@H]([C@H](C)C[C@@H]2CC[C@@H](O)[C@H](OC)C2)CC(=O)[C@H](C)/C=C(\C)[C@@H](O)[C@@H](OC)C(=O)[C@H](C)C[C@H](C)/C=C/C=C/C=C/1C [sirolimus] | – | metabolic rate with CYP3A4*22 (CYP3A4 [3]): lower
